Patent US20140135319A1, “6-SUBSTITUTED IMIDAZOPYRAZINES FOR USE AS MPS-1 AND TKK INHIBITORS IN THE TREATMENT OF HYPERPROLIFERATIVE DISORDERS” (BAYER INTELLECTUAL PROPERTY GMBH, priority 2010, published 2014)

Target: T1, human kinase Mps-1 (Homo sapiens, UniProt P33981)
T1 construct: N-terminally GST-tagged human full length recombinant Mps-1 kinase; GST (N); purchased Invitrogen, Karslruhe, Germany PV4071
T1 sequence (P33981 1-857): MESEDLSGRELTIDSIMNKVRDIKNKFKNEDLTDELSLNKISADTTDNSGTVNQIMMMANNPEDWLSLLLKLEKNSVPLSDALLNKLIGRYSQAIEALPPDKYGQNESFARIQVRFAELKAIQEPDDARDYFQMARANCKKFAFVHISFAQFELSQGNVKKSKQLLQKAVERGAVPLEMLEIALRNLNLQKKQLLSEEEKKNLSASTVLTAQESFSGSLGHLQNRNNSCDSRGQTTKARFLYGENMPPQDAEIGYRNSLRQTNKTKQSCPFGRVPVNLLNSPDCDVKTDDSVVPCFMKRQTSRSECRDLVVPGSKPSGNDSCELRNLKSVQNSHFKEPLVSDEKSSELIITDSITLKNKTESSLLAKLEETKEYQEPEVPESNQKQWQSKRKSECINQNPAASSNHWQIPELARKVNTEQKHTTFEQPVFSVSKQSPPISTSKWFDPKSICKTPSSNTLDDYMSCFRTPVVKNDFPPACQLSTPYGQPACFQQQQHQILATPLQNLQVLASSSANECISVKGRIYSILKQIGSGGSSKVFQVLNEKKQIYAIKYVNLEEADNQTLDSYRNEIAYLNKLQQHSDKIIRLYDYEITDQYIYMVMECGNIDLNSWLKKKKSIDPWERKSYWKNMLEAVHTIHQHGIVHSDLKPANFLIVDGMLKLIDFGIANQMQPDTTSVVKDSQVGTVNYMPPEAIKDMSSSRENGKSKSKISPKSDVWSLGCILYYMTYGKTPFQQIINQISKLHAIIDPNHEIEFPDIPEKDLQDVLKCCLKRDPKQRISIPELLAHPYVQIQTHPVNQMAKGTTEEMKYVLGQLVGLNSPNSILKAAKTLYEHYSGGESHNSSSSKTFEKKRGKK
Assay: Mps-1 kinase assay (TR-FRET)
Format: biochemical
Conditions: GST-tagged human full length recombinant Mps-1; 10 μM ATP; 1 μM peptide substrate; 60 min at 22° C.
Summary of the method: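 N-terminally GST-tagged full-length recombinant human Mps-1, about 1 nM final, phosphorylates a biotinylated peptide. Product detected by TR-FRET from Eu-anti-phospho-Ser/Thr antibody to streptavidin-XLent after 1 h at 22° C.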

| Compound | IC50 [nM] |
| --- | --- |
| CC(C)CNc1nc(-c2csc3ccccc23)cn2c(-c3ccc(C(=O)NC4CC4)cc3)cnc12 [Example 1-14, 4-{6-(1-benzothiophen-3-yl)-8-[(2-methylpropyl)amino]imidazo[1,2-a]pyrazin-3-yl}-N-cyclo-propylbenzamide] | 6.9 |
| CC(C)CNc1nc(C2=CCSCC2)cn2c(-c3ccc(C(=O)NC4CC4)cc3)cnc12 [Example 1-28, N-cyclopropyl-4-{6-(3,6-dihydro-2H-thiopyran-4-yl)-8-[(2-methylpropyl)amino]imidazo[1,2-a]pyrazin-3-yl}benzamide] | 2 |
| Cn1nccc1CNc1nc(C2=CCOCC2)cn2c(-c3ccc(C(=O)NC4CC4)c(F)c3)cnc12 [Example 1-67, N-cyclopropyl-4-[6-(3,6-dihydro-2H-pyran-4-yl)-8-{[(1-methyl-1H-pyrazol-5-yl)methyl]amino}imidazo[1,2-a]pyrazin-3-yl]-2-fluoro-benzamide] | 15.7 |
| CC(C)CNc1nc(-c2ccnc3ccccc23)cn2c(-c3ccc(C(=O)NC4CC4)cc3)cnc12 [Example 1-4, N-cyclopropyl-4-{8-[(2-methylpropyl)amino]-6-(quinolin-4-yl)imidazo [1,2-a]pyrazin-3-yl} benzamide] | 3.3 |
| O=C(NC1CC1)c1ccc(-c2cnc3c(NCCC(F)(F)F)nc(-c4ccncc4)cn23)cc1Cl [Example 1-36, 2-chloro-N-cyclopropyl-4-{6-(pyridin-4-yl)-8-[(3,3,3-trifluoropropyl)amino]imidazo[1,2-a]pyrazin-3-yl}benzamide] | 5.9 |
| O=C(NC1CC1)c1ccc(-c2cnc3c(NCC4CCCO4)nc(-c4ccncc4)cn23)cc1F (stereo not drawn) [Example 1-61, N-cyclopropyl-2-fluoro-4-{6-(pyridin-4-yl)-8-[(tetrahydrofuran-2-ylmethyl)amino]imidazo [1,2-a]pyrazin-3-yl} benzamide] | 13.1 |
| O=C(NC1CC1)c1ccc(-c2cnc3c(NCC4CCCO4)nc(-c4ccoc4)cn23)cc1Cl (stereo not drawn) [Example 1-43, 2-chloro-N-cyclopropyl-4-{6-(furan-3-yl)-8-[(tetrahydrofuran-2-ylmethyl)amino]imidazo [1,2-a]pyrazin-3-yl} benzamide] | 42.8 |
| CC(C)CNc1nc(-c2ccc(S(=O)(=O)n3cccc3)cc2)cn2c(-c3ccc(C(=O)NC4CC4)cc3)cnc12 [Example 1-23, N-cyclopropyl-4-{8-[(2-methylpropyl)amino]-6-[4-(1H-pyrrol-1-yl-sulonyl)phenyl]imidazo [1,2-a]pyrazin-3-yl} benzamide] | 13.1 |
| NCCCCCNc1nc(-c2cccc(CC(N)=O)c2)cn2c(-c3ccc(C(=O)NC4CC4)cc3)cnc12 [Example 1-96, 4-{6-[3-(2-Amino-2-oxo-ethyl)phenyl]-8-[(5-amino-pentyl)amino]imidazo[1,2-a]pyrazin-3-yl}-N-cyclo-propylbenzamide] | 5.6 |
| CCOc1ccc(-c2cn3c(-c4ccc(C(=O)NC5CC5)c(C)c4)cnc3c(NCCC(F)(F)F)n2)cn1 [Example 1-72, N-cyclopropyl-4-{6-(6-ethoxypyridin-3-yl)-8-[(3,3,3-trifluoropropyl)amino]imidazo[1,2-a]pyrazin-3-yl}-2-methyl-benzamide] | 9.9 |
| CC(C)CNc1nc(C2=CCN(C)CC2)cn2c(-c3ccc(C(=O)NC4CC4)cc3)cnc12 [Example 1-27, N-cyclopropyl-4-{8-[(2-methylpropyl)amino]-6-(1-methyl-1,2,3,6-tetra-hydropyridin-4-yl)imidazo[1,2-a]pyrazin-3-yl}benzamide] | 7.5 |
| CC(C)CNc1nc(-c2cncc(C(=O)NC(C)(C)C)c2)cn2c(-c3ccc(C(=O)NC4CC4)cc3)cnc12 [Example 1-24, N-tert-butyl-5-{3-[4-(cyclopropylcarbamoyl)phenyl]-8-[(2-methyl-propyl)amino]imidazo [1,2-a]pyrazin-6-yl} pyridine-3-carboxamide] | 19.4 |
| CC(C)CNc1nc(-c2ccn[nH]2)cn2c(-c3ccc(C(=O)NC4CC4)c(Cl)c3)cnc12 [Example 1-34, 2-chloro-N-cyclopropyl-4-{8-[(2-methylpropyl)amino]-6-(1H-pyrazol-5-yl)imidazo[1,2-a]pyrazin-3-yl}benzamide] | 35.7 |
| Cc1ccc(-c2cn3c(-c4ccc(C(=O)NC5CC5)cc4)cnc3c(NCC(C)C)n2)s1 [Example 1-15, N-cyclopropyl-4-{8-[(2-methylpropyl)amino]-6-(5-methylthiophen-2-yl)imidazo[1,2-a]pyrazin-3-yl}benzamide] | 55.4 |
| O=C(NC1CC1)c1ccc(-c2cnc3c(NCC4CCCO4)nc(-c4ccncc4)cn23)cc1Cl (stereo not drawn) [Example 1-42, 2-chloro-N-cyclopropyl-4-{6-(pyridin-4-yl)-8-[(tetrahydrofuran-2-ylmethyl)amino]imidazo [1,2-a]pyrazin-3-yl} benzamide] | 40.9 |
| CC(=O)NCc1ccc(-c2cn3c(-c4ccc(C(=O)NC5CC5)cc4)cnc3c(NCC(C)C)n2)cc1 [Example 1-18, 4-(6-{4-[(acetylamino)methyl]phenyl}-8-[(2-methylpropyl)amino]imidazo[1,2-a]pyrazin-3-yl)-N-cyclopropyl-benzamide] | 1.6 |
| Cn1nccc1-c1cn2c(-c3ccc(C(=O)NC4CC4)cc3)cnc2c(NCC(C)(C)O)n1 [Example 1-97, N-cyclopropyl-4-{8-[(2-hydroxy-2-methylpropyl)amino]-6-(1-methyl-1H-pyrazol-5-yl)imidazo[1,2-a]pyrazin-3-yl}benzamide] | 17.8 |
| CC(C)CNc1nc(-c2ccc3nccn3c2)cn2c(-c3ccc(C(=O)NC4CC4)cc3)cnc12 [Example 1-19, N-cyclopropyl-4-{6-(imidazo[1,2-a]pyridin-6-yl)-8-[(2-methylpropyl)amino]imidazo[1,2-a]pyrazin-3-yl}benzamide] | 2.2 |
| Cn1cc(CNc2nc(-c3cccc(CC(N)=O)c3)cn3c(-c4ccc(C(=O)NC5CC5)cc4)cnc23)cn1 [Example 1-93, 4-(6-[3-(2-Amino-2-oxo-ethyl)phenyl]-8-{[(1-methyl-1H-pyrazol-4-yl)methyl]amino}imidazo[1,2-a]pyrazin-3-yl)-N-cyclopropyl benzamide] | 4.9 |

Next, values leading:

| IC50 [nM] | Compound |
| --- | --- |
| 28 | Cc1cc(-c2cnc3c(NCCCC(C)O)nc(C4=CCOCC4)cn23)ccc1C(=O)NC1CC1 (stereo not drawn) [Example 6-12, N-cyclopropyl-4-{6-(3,6-dihydro-2H-pyran-4-yl)-8-[(4-hydroxypentyl)amino]imidazo[1,2-a]pyrazin-3-yl}-2-methylbenzamide] |
| 77.6 | Cc1cc(-c2cnc3c(NCC4CCN(C)C4)nc(C4=CCOCC4)cn23)ccc1C(=O)NC1CC1 (stereo not drawn) [Example 6-9, N-cyclopropyl-4-[6-(3,6-dihydro-2H-pyran-4-yl)-8-{[(1-methyl-pyrrolidin-3-yl)methyl]amino}imidazo[1,2-a]pyrazin-3-yl]-2-methylbenzamide] |
| 8 | CC(O)CNc1nc(-c2ccncc2)cn2c(-c3ccc(C(=O)NC4CC4)cc3)cnc12 (stereo not drawn) [Example 3-23, N-cyclopropyl-4-{8-[(2-hydroxypropyl)amino]-6-(pyrdin-4-yl)imidazo [1,2-a]pyrazin-3-yl} benzamide] |
| 6.5 | Cc1cc(-c2cnc3c(NCCC(F)(F)F)nc(C4=CCOCC4)cn23)ccc1C(=O)NC1CC1 [Example 6-2, N-cyclopropyl-4-{6-(3,6-dihydro-2H-pyran-4-yl)-8-[(3,3,3-trifluoro-propyl)amino]imidazo[1,2-a]pyrazin-3-yl}-2-methylbenzamide] |
| 208 | CC(C)CNc1nc(-c2ccccc2)cn2c(-c3ccc(C(=O)NC4(C)CC4)cc3)cnc12 [Example 2-3, N-(1-methylcyclopropyl)-4-{8-[(2-methylpropyl)amino]-6-phenylimidazo [1,2-a]pyrazin-3-yl}benzamide] |
| < 1 | Cc1cc(-c2cnc3c(NCCC(F)(F)F)nc(Sc4ccccc4)cn23)ccc1C(=O)NC1CC1 [Example 15-2, N-cyclopropyl-2-methyl-4-{6-(phenylsulfanyl)-8-[(3,3,3-trifluoropropyl)amino]imidazo[1,2-a]pyrazin-3-yl}benzamide] |
| 11.3 | O=C(NC1CC1)c1ccc(-c2cnc3c(NCCO)nc(-c4ccncc4)cn23)cc1 [Example 3-4, N-cyclopropyl-4-{8-[(2-hydroxyethyl)amino]-6-(pyridin-4-yl)imidazo [1,2-a]pyrazin-3-yl} benzamide] |
| 214 | O=C(NC1CC1)c1ccc(-c2cnc3c(NCCCN4CCOCC4)nc(-c4ccncc4)cn23)cc1 [Example 3-5, N-cyclopropyl-4-[8-{[3-(morpholin-4-yl)propyl]amino}-6-(pyridin-4-yl)imidazo[1,2-a]pyrazin-3-yl]benzamide] |
